Earlier results, collected in patent US11701406B2 (The Board of Trustees of the Leland Stanford Junior …, priority 2017, dated 2023).
pIC50: −log10 of the molar value.

Molecular target: T1, NEDD8 activating enzyme (NAE) (Homo sapiens, UniProt Q8TBC4)
T1 sequence (Q8TBC4 2-463 limits assumed): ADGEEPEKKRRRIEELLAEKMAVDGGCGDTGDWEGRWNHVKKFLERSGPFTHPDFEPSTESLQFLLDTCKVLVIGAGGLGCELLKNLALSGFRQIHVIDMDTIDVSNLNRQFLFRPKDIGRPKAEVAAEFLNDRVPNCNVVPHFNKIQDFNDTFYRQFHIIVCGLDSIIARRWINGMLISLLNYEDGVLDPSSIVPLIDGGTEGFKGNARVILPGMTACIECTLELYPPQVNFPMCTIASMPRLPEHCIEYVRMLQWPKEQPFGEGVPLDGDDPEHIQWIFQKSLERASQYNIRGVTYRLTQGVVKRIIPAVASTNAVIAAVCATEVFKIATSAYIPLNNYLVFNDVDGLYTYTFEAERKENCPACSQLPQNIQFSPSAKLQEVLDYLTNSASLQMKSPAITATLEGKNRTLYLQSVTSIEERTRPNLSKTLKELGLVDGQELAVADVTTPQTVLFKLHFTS
T1 sequence (Q13564 2-534 partner limits assumed): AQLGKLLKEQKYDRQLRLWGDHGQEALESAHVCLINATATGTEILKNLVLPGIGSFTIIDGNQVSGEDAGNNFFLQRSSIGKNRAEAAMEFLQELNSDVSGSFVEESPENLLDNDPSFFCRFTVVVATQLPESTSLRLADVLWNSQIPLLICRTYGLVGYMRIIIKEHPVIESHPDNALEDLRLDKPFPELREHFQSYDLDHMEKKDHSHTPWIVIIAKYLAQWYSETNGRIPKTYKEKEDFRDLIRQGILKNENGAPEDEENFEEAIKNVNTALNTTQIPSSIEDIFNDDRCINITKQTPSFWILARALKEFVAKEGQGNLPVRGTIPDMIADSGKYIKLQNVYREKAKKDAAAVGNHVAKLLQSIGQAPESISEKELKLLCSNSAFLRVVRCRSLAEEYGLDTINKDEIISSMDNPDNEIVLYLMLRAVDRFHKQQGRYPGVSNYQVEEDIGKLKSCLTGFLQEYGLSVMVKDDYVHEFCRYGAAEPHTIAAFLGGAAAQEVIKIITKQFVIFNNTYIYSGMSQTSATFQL
Details: read-out: IC50 (Activity, Inhibitors of NAE)

Compound | pIC50
CN1CCOc2c1ccc(F)c2C#Cc1cn([C@@H]2O[C@@H](CCS(N)(=O)=O)[C@@H](O)[C@H]2O)c2ncnc(N)c12 [TAS 1] | 9.00
MLN7243 | 9.00
Nc1ccc(SCC(=O)Nc2ccc3nc(NC(=O)c4ccc(C(F)(F)F)cc4)sc3c2)cc1 | 7.00
CN1CCOc2c1ccc(F)c2C#Cc1cn([C@@H]2C[C@@H](CCS(N)(=O)=O)[C@@H](O)[C@H]2O)c2ncnc(N)c12 [TAS 2] | 7.70
Clc1ccc(CCNC2CCN(Cc3ccccc3)CC2)c(Cl)c1 [M22] | 5.05
CCN1CCN(C(=O)N[C@@H](C(=O)N[C@@H]2C(=O)N3C2SC(C)(C)[C@@H]3C(=O)O)c2ccccc2)C(=O)C1=O (stereo partly drawn) [Piperacillin] | 6.00
